Experimental data from patent publication US20230416238A1, “N-[(1,3-BENZOXAZOL-2-YL)-HETEROCYCLE]AMIDE DERIVATIVES FOR THE TREATMENT AND PROPHYLAXIS OF HEPATITIS B VIRUS INFECTION” (Hoffmann-La Roche Inc., priority 2020, published 2023).

Assays:
Format in all cases: cell-based
HBeAg = experiment: PHH HBV natural infection assay, HBeAg (alphalisa); conditions: Hepatitis B virus, Hepatocyte, read-out: HBeAg IC50
Experimental: (§1) Detailed procedures regarding primary human hepatocyte (PHH) HBV natural infection assay are described as below. One tube of frozen PHH (10 million cells) is thawed in 37° C. water bath and then transferred to 20 mL of PHH thawing medium (Sigma, InVitroGRO HT Medium, Cat. S03319) with gently mixing. The cells were then centrifuged at […] for 5 min, the supernatant was discarded and the tube was refilled with 25 mL of PHH plating medium (Sigma, InVitroGRO CP Medium, Cat. S03317). The tube was shaken very gently to re-suspend all cells, and then 50 μL of cells were transferred to each well 384-well collagen I coated plate with appropriate liquid handling equipment, e.g. Integra VIAFLO384 or Agilent Bravo. The cells were then cultured for 24 hours in a cell incubator. For HBV infection, after PHH attachment on the culture plate, the plating medium was removed and replenished with PHH culture medium containing HBV virus. The PHH culture medium was prepared with Dulbecco's Modified Eagle Medium (DMEM)/F12 (1:1 in volume ratio) containing 10% fetal bovine serum (Gibco, Cat. 10099141), 5 ng/mL human epidermal growth factor (Gibco, Cat. PHG0311L), 20 ng/mL dexamethasone (Sigma, Cat. D4902-100 mg), 250 ng/mL human recombinant insulin (Gibco, Cat. 41400045) and 100 U/mL penicillin. HBV virus at 200 genome equivalent (GE) per cell with 4% PEG8000 (Sigma, Cat. P1458) containing culture medium were added to the PHH culture medium for infection. The cells were then cultured for 24 hours in cell incubator. Then the cell culture supernatant was removed. The HBV-infected PHH were cultured with sandwich culture method with MEI culture medium containing 1% DMSO and 0.25 mg/mL matrix gel for 72 hours. The supernatant was then refreshed with PHH culture medium containing different concentrations of testing compounds for two times with 72-hour interval. At the end of treatment, the supernatant was collected for viral markers measurements, including HBsAg, HBeAg, HBV DNA and cytotoxicity. HBsAg and HBeAg were detected using alphalisa method using their specific antibodies. For HBV DNA detection, HBV DNA Quantitative Fluorescence Diagnostic Kit (Sansure Biotech Inc.) was used following the manufacture's protocol. Cytotoxicity was determined using Cell Counting Kit-8 (CCK8, Dojindo Molecular Technologies, Inc.).
(§2) The compounds of the present invention were tested for their capacity to inhibit HBsAg and HBeAg as described herein.

[1] = Cytotoxicity in PHH natural infection assay (Cell Counting Kit-8); conditions: HBV-infected primary human hepatocytes, CCK8
Experimental: as §1

HBsAg = experiment: PHH HBV natural infection assay, HBsAg (alphalisa); conditions: Hepatitis B virus, Hepatocyte, read-out: HBsAg IC50
Experimental: as §1, §2

SMILES: C[S@@](=N)(=O)c1ccc(C(=O)NC2CC3(C2)CN(c2nc4cc(Cl)ccc4o2)C3)o1 [Example 63, N-[2-(5-chloro-1,3-benzoxazol-2-yl)-2-azaspiro[3.3]heptan-6-yl]-5-[(R)-methylsulfonimidoyl]furan-2-carboxamide]
- IC50 (HBeAg): 1.42 µM
- CC50 at 144 h [1]: > 100 µM
- IC50 (HBsAg): 2.47 µM

SMILES: O=C(NC1CC2(CCN(c3nc4cc(Cl)ccc4o3)CC2)C1)C1CCS(=O)(=O)C1 (stereo not drawn) [Example 76, N-[7-(5-chloro-1,3-benzoxazol-2-yl)-7-azaspiro[3.5]nonan-2-yl]-1,1-dioxo-thiolane-3-carboxamide]
- IC50 (HBeAg): 2.27 µM
- CC50 at 144 h [1]: > 100 µM
- IC50 (HBsAg): 2.26 µM

SMILES: O=C(NC1CCC2(CC1)CCN(c1nc3cc(Cl)ccc3o1)CC2)c1ccc([S+]([O-])CC2CC2)o1 (stereo not drawn) [Example 104, N-[3-(5-chloro-1,3-benzoxazol-2-yl)-3-azaspiro[5.5]undecan-9-yl]-5-(cyclopropylmethylsulfinyl)furan-2-carboxamide]
- IC50 (HBeAg): 0.996 µM
- CC50 at 144 h [1]: 94.8 µM
- IC50 (HBsAg): 1.16 µM

SMILES: NC(=O)c1cc(C(=O)NCC2CCN(c3nc4cc(Cl)ccc4o3)CC2)ccn1 [Example 6, N4-[[1-(5-chloro-1,3-benzoxazol-2-yl)-4-piperidyl]methyl]pyridine-2,4-dicarboxamide]
- IC50 (HBeAg): 4.43 µM
- CC50 at 144 h [1]: > 10 µM
- IC50 (HBsAg): 4.36 µM

SMILES: O=C(NC1CCC2(CC1)CCN(c1nc3cc(Cl)ccc3o1)CC2)[C@H]1CCS(=O)(=O)C1 [Example 92, (3R)—N-[3-(5-chloro-1,3-benzoxazol-2-yl)-3-azaspiro[5.5]undecan-9-yl]-1,1-dioxo-thiolane-3-carboxamide]
- IC50 (HBeAg): 0.75 µM
- CC50 at 144 h [1]: 83.9 µM
- IC50 (HBsAg): 0.857 µM

SMILES: O=C(NC1CC2CN(c3nc4cc(Cl)ccc4o3)CC2C1)c1ccc(C(F)(F)F)o1 (stereo not drawn) [Example 123, N-[2-(5-chloro-1,3-benzoxazol-2-yl)-3,3a,4,5,6,6a-hexahydro-1H-cyclopenta[c]pyrrol-5-yl]-5-(trifluoromethyl)furan-2-carboxamide]
- IC50 (HBeAg): 5.47 µM
- CC50 at 144 h [1]: > 100 µM
- IC50 (HBsAg): 4.81 µM

SMILES: CC(C)CS(=N)(=O)c1ccc(C(=O)NC2CC3(C2)CN(c2nc4cc(Cl)ccc4o2)C3)o1 (stereo not drawn) [Example 50, N-[2-(5-chloro-1,3-benzoxazol-2-yl)-2-azaspiro[3.3]heptan-6-yl]-5-(isobutylsulfonimidoyl)furan-2-carboxamide]
- IC50 (HBeAg): 1.49 µM
- CC50 at 144 h [1]: 95.4 µM
- IC50 (HBsAg): 1.66 µM

SMILES: O=C(NC1CCC2(CC1)CCN(c1nc3cc(Cl)ccc3o1)CC2)C1CS(=O)(=O)C1 [Example 88, N-[3-(5-chloro-1,3-benzoxazol-2-yl)-3-azaspiro[5.5]undecan-9-yl]-1,1-dioxo-thietane-3-carboxamide]
- IC50 (HBeAg): 1.25 µM
- CC50 at 144 h [1]: 28.9 µM
- IC50 (HBsAg): 1.52 µM

SMILES: CC(C)COC(=O)NC1CC2(C1)CN(c1nc3cc(Cl)ccc3o1)C2 [Example 22, Isobutyl N-[2-(5-chloro-1,3-benzoxazol-2-yl)-2-azaspiro[3.3]heptan-6-yl]carbamate]
- IC50 (HBeAg): 4.82 µM
- CC50 at 144 h [1]: 82.7 µM
- IC50 (HBsAg): 5.87 µM

SMILES: O=C(CCC(F)(F)F)NC1CC2(C1)CN(c1nc3cc(Cl)ccc3o1)C2 [Example 25, N-[2-(5-chloro-1,3-benzoxazol-2-yl)-2-azaspiro[3.3]heptan-6-yl]-4,4,4-trifluoro-butanamide]
- IC50 (HBeAg): 10.3 µM
- CC50 at 144 h [1]: > 100 µM
- IC50 (HBsAg): 9.8 µM

SMILES: Cc1ccc(S(=O)(=O)N2CCC(C(=O)NCC3CCN(c4nc5cc(Cl)ccc5o4)CC3)CC2)cc1 [Example 16, N-[[1-(5-chloro-1,3-benzoxazol-2-yl)-4-piperidyl]methyl]-1-(p-tolylsulfonyl)piperidine-4-carboxamide]
- IC50 (HBeAg): 3.67 µM
- CC50 at 144 h [1]: > 10 µM
- IC50 (HBsAg): 3.74 µM

SMILES: CC1(NC(=O)c2ccnc(C(F)(F)F)c2)CC2(CN(c3nc4cc(Cl)ccc4o3)C2)C1 [Example 68, N-[2-(5-chloro-1,3-benzoxazol-2-yl)-6-methyl-2-azaspiro[3.3]heptan-6-yl]-2-(trifluoromethyl)pyridine-4-carboxamide]
- IC50 (HBeAg): 4.69 µM
- CC50 at 144 h [1]: 86.9 µM
- IC50 (HBsAg): 4.35 µM

SMILES: CCNC(=O)NC1CC2(C1)CN(c1nc3cc(Cl)ccc3o1)C2 [Example 24, 1-[2-(5-Chloro-1,3-benzoxazol-2-yl)-2-azaspiro[3.3]heptan-6-yl]-3-ethyl-urea]
- IC50 (HBeAg): 8.31 µM
- CC50 at 144 h [1]: > 100 µM
- IC50 (HBsAg): 7.29 µM

SMILES: O=C(NC1CC2(C1)CN(c1nc3cc(Cl)ccc3o1)C2)C1CCC(F)(F)C1 (stereo not drawn) [Example 32, N-[2-(5-chloro-1,3-benzoxazol-2-yl)-2-azaspiro[3.3]heptan-6-yl]-3,3-difluoro-cyclopentanecarboxamide]
- IC50 (HBeAg): 10.3 µM
- CC50 at 144 h [1]: > 100 µM
- IC50 (HBsAg): 4.25 µM

SMILES: CS(=O)(=O)c1cncc(C(=O)NCC2CCN(c3nc4cc(Cl)ccc4o3)CC2)c1 [Example 9, N-[[1-(5-chloro-1,3-benzoxazol-2-yl)-4-piperidyl]methyl]-5-methylsulfonyl-pyridine-3-carboxamide]
- IC50 (HBeAg): 1.83 µM
- CC50 at 144 h [1]: > 10 µM
- IC50 (HBsAg): 1.5 µM

SMILES: CCS(=O)(=O)c1ccc(C(=O)NC2CCC3(CC2)CCN(c2nc4cc(Cl)ccc4o2)CC3)o1 [Example 117, N-[3-(5-chloro-1,3-benzoxazol-2-yl)-3-azaspiro[5.5]undecan-9-yl]-5-ethylsulfonyl-furan-2-carboxamide]
- IC50 (HBeAg): 2.91 µM
- CC50 at 144 h [1]: > 100 µM
- IC50 (HBsAg): 2.37 µM

SMILES: CC(C)CS(=O)(=O)c1ccc(C(=O)NC2CC3(C2)CN(c2nc4cc(Cl)ccc4o2)C3)o1 [Example 54, N-[2-(5-chloro-1,3-benzoxazol-2-yl)-2-azaspiro[3.3]heptan-6-yl]-5-isobutylsulfonyl-furan-2-carboxamide]
- IC50 (HBeAg): 0.828 µM
- CC50 at 144 h [1]: 84.5 µM
- IC50 (HBsAg): 1.27 µM

SMILES: O=C(NC1CC2(C1)CN(c1nc3cc(Cl)ccc3o1)C2)C1CS(=O)(=O)C1 [Example 34, N-[2-(5-chloro-1,3-benzoxazol-2-yl)-2-azaspiro[3.3]heptan-6-yl]-1,1-dioxo-thietane-3-carboxamide]
- IC50 (HBeAg): 4.48 µM
- CC50 at 144 h [1]: > 100 µM
- IC50 (HBsAg): 5.5 µM

SMILES: COCCOc1cc(C(=O)NC2CC3(C2)CN(c2nc4cc(Cl)ccc4o2)C3)ccn1 [Example 39, N-[2-(5-chloro-1,3-benzoxazol-2-yl)-2-azaspiro[3.3]heptan-6-yl]-2-(2-methoxyethoxy)pyridine-4-carboxamide]
- IC50 (HBeAg): 4.37 µM
- CC50 at 144 h [1]: > 100 µM
- IC50 (HBsAg): 6.47 µM

SMILES: Cc1ccc(S(=O)(=O)N2CCC(C(=O)NCC3CCN(c4nc5cc(Cl)ccc5o4)CC3)C2)cc1 (stereo not drawn) [Example 14, N-[[1-(5-chloro-1,3-benzoxazol-2-yl)-4-piperidyl]methyl]-1-(p-tolylsulfonyl)pyrrolidine-3-carboxamide]
- IC50 (HBeAg): 4.16 µM
- CC50 at 144 h [1]: > 10 µM
- IC50 (HBsAg): 3.82 µM

SMILES: CS(=O)(=O)N1CCC(C(=O)NCC2CCN(c3nc4cc(Cl)ccc4o3)CC2)C1 (stereo not drawn) [Example 13, N-[[1-(5-chloro-1,3-benzoxazol-2-yl)-4-piperidyl]methyl]-1-methylsulfonyl-pyrrolidine-3-carboxamide]
- IC50 (HBeAg): 8.5 µM
- CC50 at 144 h [1]: > 10 µM
- IC50 (HBsAg): 9.37 µM

SMILES: O=C(NC1CC2(C1)CN(c1nc3cc(Cl)ccc3o1)C2)C1CCS(=O)(=O)C1 (stereo not drawn) [Example 26, N-[2-(5-chloro-1,3-benzoxazol-2-yl)-2-azaspiro[3.3]heptan-6-yl]-1,1-dioxo-thiolane-3-carboxamide]
- IC50 (HBeAg): 4.65 µM
- CC50 at 144 h [1]: > 100 µM
- IC50 (HBsAg): 8.76 µM

SMILES: COc1cc(C(=O)NC2CCC3(CC2)CCN(c2nc4cc(Cl)ccc4o2)CC3)ccn1 [Example 106, N-[3-(5-chloro-1,3-benzoxazol-2-yl)-3-azaspiro[5.5]undecan-9-yl]-2-methoxy-pyridine-4-carboxamide]
- IC50 (HBeAg): 0.48 µM
- CC50 at 144 h [1]: > 100 µM
- IC50 (HBsAg): 0.59 µM

SMILES: NS(=O)(=O)c1ccc(C(=O)NCC2CCN(c3nc4cc(Cl)ccc4o3)CC2)o1 [Example 8, N-[[1-(5-chloro-1,3-benzoxazol-2-yl)-4-piperidyl]methyl]-5-sulfamoyl-furan-2-carboxamide]
- IC50 (HBeAg): 2.85 µM
- CC50 at 144 h [1]: > 10 µM
- IC50 (HBsAg): 3.14 µM

SMILES: CC1(C(=O)NC2CCC3(CC2)CCN(c2nc4cc(Cl)ccc4o2)CC3)CCSCC1 [Example 87, N-[3-(5-chloro-1,3-benzoxazol-2-yl)-3-azaspiro[5.5]undecan-9-yl]-4-methyl-tetrahydrothiopyran-4-carboxamide]
- IC50 (HBeAg): 1.13 µM
- CC50 at 144 h [1]: > 100 µM
- IC50 (HBsAg): 1.43 µM
